Laboratory results as given in patent publication US20250120958A1, “Treatment of GM2 Gangliosidosis” (Azafaros B.V., priority 2022, published 2025).

How the values were obtained:
[1] = tested on: Sandhoff mouse model (Hexb (−/−)); assay: Survival study in Sandhoff mouse model; type: in vivo; settings: Hexb (−/−) mice, treated vs vehicle/untreated
Excerpt: (strain: B6; 129S4-Hexbtm1Rlp/J). The mouse line was maintained by crossing homozygous −/− males with heterozygous females (generating litters with 50%−/− and 50%+/−) under specific pathogen-free conditions. All mice were housed in individual, ventilated cages (IVCs) with 12-h light/dark cycles with food and water ad libitum. Young-adult mice of the same genetic C57BL/6 background were from Jackson Laboratories. Breeding of Hexb mutants will target needs of the “Long-term” cohorts first, followed by the “16-week” biomarker study.
Cohort 1: There were a total of 6 dose groups and 2 vehicle groups using both Hexb+/− and Hexb−/− animals. […] Dosing occurred daily from day 30 to day 170, unless the animal was prematurely euthanized per protocol.
A subsequent study to explore lower doses was also performed (in the same manner as in Example 2) in which doses of 0.02, 0.06, 0.2 and 0.5 mg/kg/day were used. […] It is unclear why the 0.06 mg/kg/day had less survival as formulations were checked and confirmed accurate dosing (internal data).

[2] = tested on: Sandhoff mice; settings: Aspirin combined with substrate reduction therapy; cited from earlier work
[3] = Dynamic vapour sorption (DVS); type: physicochemical; settings: high relative humidity
Excerpt: In addition, the behaviour of the sample of the Form 3 crystalline form of compound of formula (I) obtained by equilibration with ethyl acetate was investigated under variable water vapour pressures (DVS measurement). At the highest relative humidity of 95% the sample absorbed about 1.2% of water that was released when the relative humidity was returned to the 50% RH. The amount of absorbed water is small, and the water sorption is reversible. […] For Form 2, at high relative humidity the sample absorbed about 18% of water; however, most of the absorbed water was released when the relative humidity was returned to the 50% RH.
Dynamic vapour sorption (DVS) measurements were performed with an SPS11-100n “Sorptions Prufsystem” from ProUmid (formerly “Projekt Messtechnik”), August-Nagel-Str. 23, 89079 Ulm (Germany). About 5 mg to 20 mg of sample was put into an aluminum sample pan. Humidity change rates of 5% per hour were used.

## OC[C@H]1[C@@H](O)[C@H](O)[C@@H](O)CN1CCCCCOCc1ccc(-c2ccccc2)c(F)c1 [compound of formula (I)]
[1]
  increase in survival / life expectancy: at least 22%

## CC(=O)Oc1ccccc1C(=O)O [Aspirin]
[2]
  maximum improvement of survival: 73%
  synergy, improvement in survival: 11%

## OC[C@H]1[C@@H](O)[C@H](O)[C@@H](O)CN1CCCCCOCc1ccc(-c2ccccc2)c(F)c1 [Form 2]
[3]
  water absorbed (DVS): about 18%
